The values below come from patent US10253080B2, “Glucagon-like-peptide-2 (GLP-2) analogues” (Zealand Pharma A/S, priority 2012, dated 2019).

The target of data set [1] is T1, human GLP-1 receptor (Homo sapiens, UniProt P43220).
T1 construct: expressed in transfected cells; host or cells: HEK293
Description: GLP-1 receptor efficacy assay (cAMP AlphaScreen). The data set is classed as cell-based. To be noted: HEK293 cells expressing human GLP-1R, cAMP response. The procedure:
The 5′-end primers additionally encoded a near Kozak consensus sequence to ensure efficient translation. […] 48 hours after transfection, cells were seeded for limited dilution cloning and selected with 1 mg/ml G418 in the culture medium.
(§1) Data from test compounds eliciting an increase in the intracellular level of cAMP were normalized relative to the positive and negative control (vehicle) to calculate the EC50 and maximal response from the concentration response curve.
(Alpha assays give light when donor and acceptor beads are brought close together.)

Data set [2] is described as follows: Oral glucose tolerance test (OGTT) in normal mice. Format: in vivo, C57BL/6J male mice. To be noted: single SC dose 1 h before 2 g/kg oral glucose; vs vehicle; FIG. 2. The procedure: Normal chow-fed C57BL/6J male mice were used. The mice were kept in standard housing conditions (light-, temperature-, and humidity-controlled room (12:12 h light-dark cycle, with lights on at 06.00-18.00 h; 24° C.; 50% relative humidity)), and each dosing group consisted of 10 animals.
Prior to the oral glucose tolerance test (OGTT), animals were fasted for 5 h. One hour before glucose challenge (time t=−60 min) baseline blood glucose was measured. Immediately after the blood sample, the animals were dosed once subcutaneously with compound at the indicated amount or PBS (vehicle). One hour later at t=0 min, a 2 g/kg oral gavage of glucose (0.4 g/ml in water diluted from glucose SAD […]; dose volume 5 ml/kg) was given to the animals. After glucose administration, tail vein blood was drawn for glucose measurements at t=15, 30, 60, 120 min.

Data set [3] can be described thus: Effect in diet-induced obese mice (intestinal mass, glucose homeostasis). The data set is classed as in vivo, C57BL/6J male mice. To be noted: SC twice daily for 14 days. As to the method: Diet-induced obesity was generated by feeding C57BL/6J male mice with high fat diet (Research Diet 60% fat (D12492) Research Diet Inc., New Brunswick, USA). The mice were kept in standard housing conditions (light-, temperature-, and humidity-controlled room (12:12 h light-dark cycle, with lights on at 06.00-18.00 h; 24° C.; 50% relative humidity)).
The vehicle treated dosing group contained 8 animals and the compound 7 treated groups consisted of 12 animals/group. All animals were mock treated for 7 days (once daily, SC, 100 μl vehicle) to acclimatize the animals to handling and injections, followed by treatment (vehicle or compound 7) for 14 days (twice daily, SC, 5 ml/kg). Animals were fasted overnight (day 11-12) and blood was drawn for analysis of glucose and insulin. On day 14, animals were sacrificed and small and large intestines removed, washed and weighed.

A short description of data set [4]: Effect on intestinal weight in normal rats. Format: in vivo, Wistar male rats. The conditions noted are these: SC once daily for four days, weighed day 5; FIG. 3. As to the method: Normal chow-fed Wistar male rats were used. The rats were kept in standard housing conditions (light-, temperature-, and humidity-controlled room (12:12 h light-dark cycle, with lights on at 06.00-18.00 h; 24° C.; 50% relative humidity)), and each dosing group consisted of 6 animals. Rats were dosed once daily via the subcutaneous route, for four days with compound at the indicated amount or PBS (vehicle). On day five, rats were sacrificed and small intestinal weight wet measured.

Data set [5] deals with T2, human GLP-2 receptor (Homo sapiens, UniProt O95838, D470N).
T2 construct: host or cells: HEK293
T2 sequence (O95838 1-553 D470N): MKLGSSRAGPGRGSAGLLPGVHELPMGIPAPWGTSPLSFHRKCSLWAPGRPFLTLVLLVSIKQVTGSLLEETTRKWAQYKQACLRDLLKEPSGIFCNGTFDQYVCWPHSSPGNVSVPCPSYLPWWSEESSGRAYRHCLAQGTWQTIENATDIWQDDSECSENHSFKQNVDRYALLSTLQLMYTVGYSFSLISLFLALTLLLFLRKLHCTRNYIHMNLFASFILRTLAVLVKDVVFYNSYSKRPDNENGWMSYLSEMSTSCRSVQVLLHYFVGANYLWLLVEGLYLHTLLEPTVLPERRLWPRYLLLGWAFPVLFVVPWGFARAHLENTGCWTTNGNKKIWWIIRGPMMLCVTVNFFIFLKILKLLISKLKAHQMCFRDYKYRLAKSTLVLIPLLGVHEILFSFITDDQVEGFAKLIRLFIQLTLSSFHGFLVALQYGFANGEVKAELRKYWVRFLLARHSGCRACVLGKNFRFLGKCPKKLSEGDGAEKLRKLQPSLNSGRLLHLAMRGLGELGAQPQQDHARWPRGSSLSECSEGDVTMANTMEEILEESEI
Put plainly: GLP-2 receptor efficacy assay (cAMP AlphaScreen). To be noted: HEK293 cells expressing hGLP-2 receptor, cAMP response; read-out: GLP-2R EC50. Format: cell-based. As to the method:
Test compounds inducing an increase in the intracellular level of cAMP were tested in this assay, and the response normalized relative to a positive and negative control to calculate the EC50 and maximal response from the concentration response curve.
The hGLP2-R was purchased from MRC-geneservice, Babraham, Cambridge as an image clone: 5363415 (11924-117). For subcloning into an mammalian expression vector, primers for subcloning were obtained from DNA-Technology, Risskov, Denmark. The 5′ and 3′ primers used for the PCR reaction include terminal restriction sites for cloning and the context of the 5′ primer is modified to a Kozak consensus without changing the sequence of the product encoded by the ORF. A standard PCR reaction was run using image clone 5363415 (11924-117) as a template with the above mentioned primers and Polymerase Herculase II Fusion in a total vol, of 50 μl. The generated PCR product was purified using GFX PCR and Gel band purification kit, digested with restriction enzymes and cloned into the mammalian expression vector using Rapid DNA Ligation Kit. Ligation reaction was transformed to XL10 Gold Ultracompetent cells and colonies were picked for DNA production using Endofree Plasmid maxi kit. Subsequent sequence analysis was conducted by MWG Eurofins, Germany.
HEK293 cells were transfected using the Lipofectamine PLUS transfection method. The day before transfection, HEK293 cells were seeded in two T75 flasks at a density of 2×10^6 cells/T75 flask in cell culturing medium without antibiotics. On the day of transfection, cells were washed with 1×DPBS and medium was replaced with Optimem to a volume of 5 mL/T75 flask before addition of Lipofectamine-plasmid complexes were added gently and drop wise to the cells in T75 flasks and replaced with growth medium after 3 hours and again to growth medium supplemented with 500 μg/mL G418 after 24 hours. After 4 weeks in G418 selection, colonies were picked and tested in a functional assay. One colony was selected for use in compound profiling.
as §1

The conditions of data set [6]: DPP IV degradation and renal clearance (Tavares et al. 2000); cited from earlier work.
In data set [7] the target is human GLP-2 receptor (hGLP2-R), splice variant rs17681684 (human, UniProt O95838). Description: cell-based or functional assay.

Non-standard residues stand in square brackets, D forms with d. Residues, ends and D or L forms follow the SMILES beside them. Aib = CC(C)(N)C(=O)O Bounds are passed on as bounds.

T1 sequence (P43220 24-463): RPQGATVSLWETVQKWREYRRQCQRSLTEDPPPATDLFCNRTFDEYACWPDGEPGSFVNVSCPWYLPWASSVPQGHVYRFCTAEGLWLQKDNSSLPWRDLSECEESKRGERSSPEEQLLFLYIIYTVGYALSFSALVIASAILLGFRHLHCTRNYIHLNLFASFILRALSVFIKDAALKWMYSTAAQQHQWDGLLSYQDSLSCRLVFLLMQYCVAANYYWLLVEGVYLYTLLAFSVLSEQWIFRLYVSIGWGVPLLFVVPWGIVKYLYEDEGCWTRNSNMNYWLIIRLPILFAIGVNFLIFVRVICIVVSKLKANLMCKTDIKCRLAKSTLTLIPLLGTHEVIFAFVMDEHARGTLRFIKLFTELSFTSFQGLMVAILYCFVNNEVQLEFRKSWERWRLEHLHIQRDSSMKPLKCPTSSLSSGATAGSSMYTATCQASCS

Turning to `CC[C@H](C)[C@H](NC(=O)[C@H](Cc1ccccc1)NC(=O)[C@H](CC(=O)O)NC(=O)[C@H](CCCNC(=N)N)NC(=O)[C@H](C)NC(=O)[C@H](C)NC(=O)[C@H](CCCCN)NC(=O)CNC(=O)[C@H](CC(=O)O)NC(=O)[C@H](CC(C)C)NC(=O)[C@@H](NC(=O)[C@@H](NC(=O)[C@H](CC(N)=O)NC(=O)[C@H](CC(C)C)NC(=O)[C@H](CCC(=O)O)NC(=O)[C@H](CC(=O)O)NC(=O)[C@H](CO)NC(=O)[C@H](Cc1ccccc1)NC(=O)[C@H](CO)NC(=O)CNC(=O)[C@H](CC(=O)O)NC(=O)C(C)(C)NC(=O)[C@@H](N)Cc1c[nH]cn1)[C@@H](C)O)[C@@H](C)CC)C(=O)N[C@@H](CC(N)=O)C(=O)N[C@@H](Cc1c[nH]c2ccccc12)C(=O)N[C@@H](CC(C)C)C(=O)N[C@H](C(=O)N[C@@H](CCC(N)=O)C(=O)N[C@H](C(=O)N[C@@H](CCCCN)C(N)=O)[C@@H](C)O)[C@@H](C)CC` [Compound 10] (H-H[Aib]DGSFSDELNTILDGKAARDFINWLIQTK-NH2), in data set [1], the EC50 (usually the concentration needed to bring the measured effect to its halfway point) is 0.03 nM.
Same read-out and setting: the same measure for `CC[C@H](C)[C@H](NC(=O)[C@H](Cc1ccccc1)NC(=O)[C@H](CC(=O)O)NC(=O)[C@H](CCCNC(=N)N)NC(=O)[C@H](C)NC(=O)[C@H](C)NC(=O)[C@H](CC(C)C)NC(=O)[C@H](CC(N)=O)NC(=O)[C@H](CC(=O)O)NC(=O)[C@H](CC(C)C)NC(=O)[C@@H](NC(=O)[C@@H](NC(=O)[C@H](CC(N)=O)NC(=O)[C@H](CCSC)NC(=O)[C@H](CCC(=O)O)NC(=O)[C@H](CC(=O)O)NC(=O)[C@H](CO)NC(=O)[C@H](Cc1ccccc1)NC(=O)[C@H](CO)NC(=O)CNC(=O)[C@H](CC(=O)O)NC(=O)CNC(=O)[C@@H](N)Cc1c[nH]cn1)[C@@H](C)O)[C@@H](C)CC)C(=O)N[C@@H](CC(N)=O)C(=O)N[C@@H](Cc1c[nH]c2ccccc12)C(=O)N[C@@H](CC(C)C)C(=O)N[C@H](C(=O)N[C@@H](CCC(N)=O)C(=O)N[C@H](C(=O)N[C@@H](CCCCN)C(=O)N[C@H](C(=O)N[C@H](C(=O)N[C@@H](CC(=O)O)C(=O)O)[C@@H](C)O)[C@@H](C)CC)[C@@H](C)O)[C@@H](C)CC` [GLP-2 (Gly2), reference compound]: above 200 nM.
Same read-out and setting: for “H-HGDGSFSDEMNTILDGQAARDFINWLIQTK-NH2 [Compound 3]” the value was 9 nM.
On to “H-HGDGSFSDEMNTILDGQAARDFINWLIQTK-NH2 [Compound 12]”, for which the “blood glucose response in OGTT” value in data set [2] is “significantly reduced the blood glucose response”. The same molecule had an EC50 in data set [1] of 0.07 nM.
For the molecule “H-HGDGSFSSELATILDGKAARDFINWLIQTKITD-OH [Compound 7] [listing 1 of 2 here]”, in data set [3] (overnight fast day 11-12, vs vehicle, FIG. 5A), the fasting blood glucose result is on record as “reduced”. The “fasting plasma insulin levels” value in data set [3] (overnight fast day 11-12, vs vehicle, FIG. 5B) is listed as “reduced”. In addition, the small intestinal mass result in data set [3] (vs vehicle, FIG. 4A) was “significantly increased”. Besides, in data set [3] (vs vehicle, FIG. 4B), the large intestinal mass entry is “significantly increased”. Also, the HOMA-IR index entry in data set [3] (vs vehicle, FIG. 5C) is reported as “lower HOMA-IR index than vehicle treated controls”. Moreover, the EC50 in data set [1] was determined as 0.78 nM. Besides, in data set [4], the “small intestinal wet weight” value was “increased intestinal weight in a dose dependant manner”.
For the molecule “H-HGDGSFSSELATILDGKAARDFINWLIQTKITD-OH [Compound 7] [listing 2 of 2 here]”, the EC50 in data set [5] turned out to be 0.2 nM.
With “H-HGDGSFSSELATILDGQAARDFIAWLIQTKITD-OH [Compound 11] [listing 1 of 2 here]”, the EC50 in data set [1] was 0.34 nM.
As for “H-HGDGSFSSELATILDGQAARDFIAWLIQTKITD-OH [Compound 11] [listing 2 of 2 here]”, the EC50 in data set [5] was found to be 0.2 nM.
In data set [1], “H-HGDGSFSSEMNTILDSQAARDFINWLIQTKITD-OH [Compound 4] [listing 1 of 2 here]” returned an EC50 of 25 nM.
Consider “H-HGDGSFSSEMNTILDSQAARDFINWLIQTKITD-OH [Compound 4] [listing 2 of 2 here]”, for which the EC50 in data set [5] turned out to be 0.06 nM.
In turn, “H-HGEGSFSSDLSTILEGKAARDFIEWLIQTKITD-OH [Compound 13] [listing 1 of 2 here]” displayed an EC50 in data set [1] of 18 nM.
As for “H-HGEGSFSSDLSTILEGKAARDFIEWLIQTKITD-OH [Compound 13] [listing 2 of 2 here]”, in data set [5], the EC50 worked out at 0.1 nM.
As for “H-HGEGSFSSDLSTILENKAARDFIEWLIQTKITD-OH [Compound 9] [listing 1 of 2 here]”, the EC50 in data set [1] came out at 9.1 nM.
With “H-HGEGSFSSDLSTILENKAARDFIEWLIQTKITD-OH [Compound 9] [listing 2 of 2 here]”, the EC50 in data set [5] is 0.2 nM.
For the molecule “H-HGEGTFTSDLSKQMEGQAVRDFIEWLIQTKITD-OH [Compound 5] [listing 1 of 2 here]”, the EC50 in data set [1] came to 1 nM.
Take “H-HGEGTFTSDLSKQMEGQAVRDFIEWLIQTKITD-OH [Compound 5] [listing 2 of 2 here]”: the EC50 in data set [5] was 0.2 nM.
Regarding “H-HGEGTFTSDLSKQMESKAARDFIEWLIQTKITD-OH [Compound 6]”, the EC50 in data set [5] stood at 0.2 nM.
In data set [1], “H-HGEGTFTSDLSTILENKAARDFIEWLIQTKITD-OH [Compound 8] [listing 1 of 2 here]” returned an EC50 of 16 nM.
On to “H-HGEGTFTSDLSTILENKAARDFIEWLIQTKITD-OH [Compound 8] [listing 2 of 2 here]”, for which, in data set [5], the EC50 stood at 0.008 nM.
“His-Ala-Asp-Gly-Ser-Phe-Ser-Asp-Glu-Met-Asn-Thr-Ile-Leu-Asp-Asn-Leu-Ala-Ala-Arg-Asp-Phe-Ile-Asn-Trp-Leu-Ile-Gln-Thr-Lys-Ile-Thr-Asp [GLP-2(1-33)]”: the half life result in data set [6] is reported as “about 7 minutes”.

B1: GLP-1 (peptide)
peptide: HDEFERHAEGTFTSDVSSYLEGQAAKEFIAWLVKGRG
For B1, the “GLP-2R EC50 (nM), cAMP AlphaScreen” value in data set [7] was above 1000 nM.
